Results from the supplement of paper PMC10307832.

Tests used:
Test in all cases: relative viability (nuclei count vs DMSO), 5 days (fraction); higher = more cells survive
[1] = compound: CC1=CC=C(C=C1)C(=O)CN2C3=C(CCCC3)SC2=N [Pifithrin_alpha] + NC(=O)Nc1cc(-c2cccc(F)c2)sc1C(=O)N[C@H]1CCCNC1 [AZD7762] (partner 0.2 µM)
Method in brief: (§1)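 Values are medians from duplicate plates. Each reflects relative viability, defined as the nuclei count of treated wells over that of vehicle wells. Lung cancer cell lines in 1536-well plates were pin-tool dosed one day after seeding with one drug alone or with a fixed anchor-drug dose plus five library-drug doses (not always all listed) in √10 steps, then fixed, stained and imaged at 4× after 5 days.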

[2] = compound: CC1=CC=C(C=C1)C(=O)CN2C3=C(CCCC3)SC2=N [Pifithrin_alpha] + O=C(CCCCCCC(=O)Nc1ccccc1)NO [Vorinostat] (partner 1 µM)
Method in brief: as §1

Axitinib + Bortezomib = compound: CNC(=O)c1ccccc1Sc1ccc2c(/C=C/c3ccccn3)n[nH]c2c1 [Axitinib] + CC(C)C[C@H](NC(=O)[C@H](Cc1ccccc1)NC(=O)c1cnccn1)B(O)O [Bortezomib] (partner 0.002 µM)
Method in brief: as §1

Axitinib + Alpelisib = compound: CNC(=O)c1ccccc1Sc1ccc2c(/C=C/c3ccccn3)n[nH]c2c1 [Axitinib] + Cc1nc(NC(=O)N2CCC[C@H]2C(N)=O)sc1-c1ccnc(C(C)(C)C(F)(F)F)c1 [Alpelisib] (partner 2 µM)
Method in brief: as §1

Cell Line	relative viability ([1]; first compound 1 µM)	relative viability ([1]; first compound 3.162 µM)	relative viability ([1]; first compound 10 µM)	relative viability ([1]; first compound 31.62 µM)	relative viability ([1]; first compound 100 µM)	relative viability ([2]; first compound 1 µM)	relative viability ([2]; first compound 3.162 µM)	relative viability ([2]; first compound 10 µM)	relative viability ([2]; first compound 31.62 µM)	relative viability ([2]; first compound 100 µM)	relative viability (Axitinib + Bortezomib; first compound 0.005 µM)	relative viability (Axitinib + Bortezomib; first compound 0.01581 µM)	relative viability (Axitinib + Bortezomib; first compound 0.05 µM)	relative viability (Axitinib + Bortezomib; first compound 0.1581 µM)	relative viability (Axitinib + Bortezomib; first compound 0.5 µM)	relative viability (Axitinib + Alpelisib; first compound 0.005 µM)	relative viability (Axitinib + Alpelisib; first compound 0.01581 µM)	relative viability (Axitinib + Alpelisib; first compound 0.05 µM)	relative viability (Axitinib + Alpelisib; first compound 0.1581 µM)	relative viability (Axitinib + Alpelisib; first compound 0.5 µM)
NCI-H1355	0.857	0.633	0.511	0.463	0.514	0.606	0.483	0.429	0.376	0.479	1.26	1.13	1.32	1.17	1.15	0.891	0.825	0.794	0.897	0.909
NCI-H1437	1.21	1.21	1.11	0.735	0.942	0.78	0.619	0.565	0.468	0.356	0.515	0.542	0.55	0.446	0.589	1.01	1.01	1.01	0.929	1.06
NCI-H1651	0.399	0.461	0.454	0.361	0.512	0.148	0.553	0.476	0.533	0.563	0.926	0.942	0.934	0.889	0.857	1.03	0.944	0.971	0.937	1.12
NCI-H1666	0.767	0.717	0.677	0.581	0.491	0.96	0.962	0.723	0.771	0.793	0.938	0.881	0.97	0.922	0.92	1.12	0.918	0.942	1.05	1.1
NCI-H1734	0.486	0.526	0.517	0.429	0.524	0.715	0.776	0.773	0.537	0.75	0.935	0.974	0.879	1.01	1.06	0.547	0.691	0.702	0.626	0.707
NCI-H1755	0.433	0.498	0.46	0.41	0.434	0.773	0.853	0.694	0.599	0.724	0.973	0.973	0.932	0.971	0.967	0.987	0.84	0.922	0.878	0.915
NCI-H1915	0.682	0.694	0.647		0.656	0.456	0.527	0.418		0.543	0.921	0.944	1.05	0.986	0.976	1.08	1.08	1.03	1.08	1.08
NCI-H1975	0.508	0.485	0.501	0.512	0.38	0.626	0.708	0.579	0.54	0.529	0.404	0.357	0.397	0.394	0.463	0.777	0.73	0.766	0.667	0.74
